Source: patent publication US20220119354A1, “DIAMINO-SUBSTITUTED PYRIDINES AND PYRIMIDINES AS HERBICIDES” (FMC Corporation, priority 2019, published 2022)

Legend:
Type in all cases: in vivo
[1] = tested on: barnyardgrass (Echinochloa crus-galli); test: Test A preemergence, barnyardgrass; details: 0 to 100 scale, 0 is no effect, 100 is complete control
Procedure, shortened: (§1)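 Post: seedlings 2–10 cm, 1–2 leaves, foliar spray. Pre: soil spray after sowing in loam/sand blend. Both formulated in non-phytotoxic solvent with surfactant; injury scored visually 0–100 after ~10 d.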

kochia (Kochia scoparia) [2] = test: Test A preemergence, kochia; details: 0 to 100 scale, 0 is no effect, 100 is complete control
Procedure, shortened: as §1

[3] = tested on: ragweed (common ragweed, Ambrosia elatior); test: Test A preemergence, ragweed; details: 0 to 100 scale, 0 is no effect, 100 is complete control
Procedure, shortened: as §1

[4] = tested on: ryegrass, Italian (Lolium multiflorum); test: Test A preemergence, Italian ryegrass; details: 0 to 100 scale, 0 is no effect, 100 is complete control
Procedure, shortened: as §1

[5] = tested on: foxtail, giant (Setaria faberii); test: Test A preemergence, giant foxtail; details: 0 to 100 scale, 0 is no effect, 100 is complete control
Procedure, shortened: as §1

[6] = tested on: pigweed (Amaranthus retroflexus); test: Test A preemergence, pigweed; details: 0 to 100 scale, 0 is no effect, 100 is complete control
Procedure, shortened: as §1

[7] = tested on: barnyardgrass (Echinochloa crus-galli); test: Test A postemergence, barnyardgrass; details: Echinochloa crus-galli, post-emergence, 240 h, 0 to 100 scale, 0 no effect, 100 complete control, read-out: Plant response rating, Barnyardgrass; for pest or weed control at 125 g/ha: 125 g ai/ha; for pest or weed control at 500 g/ha: 500 g ai/ha
Procedure, shortened: as §1

kochia (Kochia scoparia) [8] = test: Test A postemergence, kochia; details: Bassia scoparia, post-emergence, 240 h, 0 to 100 scale, 0 no effect, 100 complete control, read-out: Plant response rating, Kochia; for pest or weed control at 125 g/ha: 125 g ai/ha; for pest or weed control at 500 g/ha: 500 g ai/ha
Procedure, shortened: as §1

[9] = tested on: ragweed (common ragweed, Ambrosia elatior); test: Test A postemergence, ragweed; details: Ambrosia artemisiifolia, post-emergence, 240 h, 0 to 100 scale, 0 no effect, 100 complete control, read-out: Plant response rating, Ragweed; for pest or weed control at 125 g/ha: 125 g ai/ha; for pest or weed control at 500 g/ha: 500 g ai/ha
Procedure, shortened: as §1

[10] = tested on: ryegrass, Italian (Lolium multiflorum); test: Test A postemergence, Italian ryegrass; details: Lolium multiflorum, post-emergence, 240 h, 0 to 100 scale, 0 no effect, 100 complete control, read-out: Plant response rating, Ryegrass, Italian; for pest or weed control at 125 g/ha: 125 g ai/ha; for pest or weed control at 500 g/ha: 500 g ai/ha
Procedure, shortened: as §1

[11] = tested on: foxtail, giant (Setaria faberii); test: Test A postemergence, giant foxtail; details: Setaria faberi, post-emergence, 240 h, 0 to 100 scale, 0 no effect, 100 complete control, read-out: Plant response rating, Foxtail, Giant; for pest or weed control at 125 g/ha: 125 g ai/ha; for pest or weed control at 500 g/ha: 500 g ai/ha
Procedure, shortened: as §1

[12] = tested on: pigweed (Amaranthus retroflexus); test: Test A postemergence, pigweed; details: Amaranthus retroflexus, post-emergence, 240 h, 0 to 100 scale, 0 no effect, 100 complete control, read-out: Plant response rating, Pigweed; for pest or weed control at 125 g/ha: 125 g ai/ha; for pest or weed control at 500 g/ha: 500 g ai/ha
Procedure, shortened: as §1

[13] = tested on: wheat (Triticum aestivum); test: Test A postemergence, wheat; details: Triticum aestivum, post-emergence, 240 h, 0 to 100 scale, 0 no effect, 100 complete control, read-out: Plant response rating, Wheat; for plant injury at 125 g/ha: 125 g ai/ha; for plant injury at 500 g/ha: 500 g ai/ha
Procedure, shortened: as §1

rice (Oryza sativa) = test: Test B flooded paddy test, rice; details: Oryza sativa, 360 h; Flood, 250 g ai/ha, applied to paddy water, 2-leaf stage, visual evaluation after 13 to 15 d; read-out: Plant response rating, Rice (0 to 100 scale, 0 is no effect, 100 is complete control)
Procedure, shortened: (§2)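 Each response is a visual 0–100 rating made against untreated controls, where 0 is no effect and 100 is complete control; a dash marks no result. Compound was dosed into 3 cm paddy water over 2-leaf plants, assessed after 13 to 15 d.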

[14] = tested on: sedge, umbrella (small-flower umbrella sedge, Cyperus difformis); test: Test B flooded paddy test, umbrella sedge; details: Cyperus difformis, 360 h; Flood, 250 g ai/ha, applied to paddy water, 2-leaf stage, visual evaluation after 13 to 15 d; read-out: Plant response rating, Sedge, Umbrella (0 to 100 scale, 0 is no effect, 100 is complete control)
Procedure, shortened: as §2

[15] = tested on: ducksalad (Heteranthera limosa); test: Test B flooded paddy test, ducksalad; details: Heteranthera limosa, 360 h; Flood, 250 g ai/ha, applied to paddy water, 2-leaf stage, visual evaluation after 13 to 15 d; read-out: Plant response rating, Ducksalad (0 to 100 scale, 0 is no effect, 100 is complete control)
Procedure, shortened: as §2

[16] = tested on: barnyardgrass (Echinochloa crus-galli); test: Test B flooded paddy test, barnyardgrass; details: Echinochloa crus-galli, 360 h; Flood, 250 g ai/ha, applied to paddy water, 2-leaf stage, visual evaluation after 13 to 15 d; read-out: Plant response rating, Barnyardgrass (0 to 100 scale, 0 is no effect, 100 is complete control)
Procedure, shortened: as §2

Row | Compound | Barnyardgrass plant response rating ([1]; 125 g ai/ha) | Barnyardgrass plant response rating ([1]; 500 g ai/ha) | Kochia plant response rating (kochia (Kochia scoparia) [2]; 125 g ai/ha) | Kochia plant response rating (kochia (Kochia scoparia) [2]; 500 g ai/ha) | Ragweed plant response rating ([3]; 125 g ai/ha) | Ragweed plant response rating ([3]; 500 g ai/ha) | Ryegrass, Italian plant response rating ([4]; 125 g ai/ha) | Ryegrass, Italian plant response rating ([4]; 500 g ai/ha) | Foxtail, Giant plant response rating ([5]; 125 g ai/ha) | Foxtail, Giant plant response rating ([5]; 500 g ai/ha) | Pigweed plant response rating ([6]; 125 g ai/ha) | Pigweed plant response rating ([6]; 500 g ai/ha) | pest or weed control at 125 g/ha [7] | pest or weed control at 500 g/ha [7] | pest or weed control at 125 g/ha (kochia (Kochia scoparia) [8]) | pest or weed control at 500 g/ha (kochia (Kochia scoparia) [8]) | pest or weed control at 125 g/ha [9] | pest or weed control at 500 g/ha [9] | pest or weed control at 125 g/ha [10] | pest or weed control at 500 g/ha [10] | also measured
1 | C[C@@H](Nc1ncc(C(F)(F)F)c(N)n1)c1cc2cccc(F)c2o1 [Compound 71, N2-[(1R)-1-(7-fluoro-2-benzofuranyl)ethyl]-5-(trifluoromethyl)-2,4-pyrimidinediamine] | 70 | 100 | 90 | 100 | 100 | 100 | 20 | 80 | 90 | 100 | 100 | 100 | 30% | 100% | 90% | 90% | 80% | 90% | 30% | 70% | pest or weed control at 125 g/ha [11]: 60%; pest or weed control at 500 g/ha [11]: 90%; pest or weed control at 125 g/ha [12]: 100%; pest or weed control at 500 g/ha [12]: 100%; plant injury at 125 g/ha [13]: 0%; plant injury at 500 g/ha [13]: 0%; plant injury at 250 g/ha (rice (Oryza sativa)): 0%; pest or weed control at 250 g/ha [14]: 0%; pest or weed control at 250 g/ha [15]: 0%; pest or weed control at 250 g/ha [16]: 0%
2 | C[C@@H](Nc1ncc(C(F)(F)F)c(N)n1)c1cc2c(F)cccc2o1 [Compound 73, N2-[(1R)-1-(4-fluoro-2-benzofuranyl)ethyl]-5-(trifluoromethyl)-2,4-pyrimidinediamine] | 90 | 100 | 100 | 100 | 100 | 100 | 100 | 100 | 100 | 100 | 100 | 100 | 60% | 100% | 90% | 100% | 90% | 100% | 90% | 100% | pest or weed control at 125 g/ha [11]: 70%; pest or weed control at 500 g/ha [11]: 100%; pest or weed control at 125 g/ha [12]: 100%; pest or weed control at 500 g/ha [12]: 100%; plant injury at 125 g/ha [13]: 0%; plant injury at 500 g/ha [13]: 0%; plant injury at 250 g/ha (rice (Oryza sativa)): 10%; pest or weed control at 250 g/ha [14]: 90%; pest or weed control at 250 g/ha [15]: 98%; pest or weed control at 250 g/ha [16]: 65%
3 | C[C@@H](Nc1ncc(C(F)(F)F)c(N)n1)c1cc2cccc(F)c2s1 [Compound 75, N2-[(1R)-1-(7-fluorobenzo[b]thien-2-yl)ethyl]-5-(trifluoromethyl)-2,4-pyrimidinediamine] | 90 | 90 | 90 | 100 | 100 | 100 | 80 | 100 | 90 | 100 | 100 | 100 | 30% | 100% | 80% | 90% | 70% | 90% | 0% | 50% | pest or weed control at 125 g/ha [11]: 60%; pest or weed control at 500 g/ha [11]: 90%; pest or weed control at 125 g/ha [12]: 100%; pest or weed control at 500 g/ha [12]: 100%; plant injury at 125 g/ha [13]: 0%; plant injury at 500 g/ha [13]: 0%; plant injury at 250 g/ha (rice (Oryza sativa)): 0%; pest or weed control at 250 g/ha [14]: 98%; pest or weed control at 250 g/ha [15]: 95%; pest or weed control at 250 g/ha [16]: 40%
4 | C[C@@H](Nc1ncc(C(F)(F)F)c(N)n1)c1cc2c(F)cccc2s1 [Compound 61, N2-[(1R)-1-(4-fluorobenzo[b]thien-2-yl)ethyl]-5-(trifluoromethyl)-2,4-pyrimidinediamine] | 80 | 90 | 90 | 90 | 90 | 100 | 40 | 100 | 100 | 100 | 100 | 100 | 80% | 100% | 80% | 90% | 60% | 100% | 50% | 90% | pest or weed control at 125 g/ha [11]: 90%; pest or weed control at 500 g/ha [11]: 90%; pest or weed control at 125 g/ha [12]: 100%; pest or weed control at 500 g/ha [12]: 100%; plant injury at 125 g/ha [13]: 20%; plant injury at 500 g/ha [13]: 30%; plant injury at 250 g/ha (rice (Oryza sativa)): 0%; pest or weed control at 250 g/ha [14]: 90%; pest or weed control at 250 g/ha [15]: 50%; pest or weed control at 250 g/ha [16]: 40%
